Results reported in US20220096614A1, “PEPTIDE-INDUCED NK CELL ACTIVATION” (University of Southampton, priority 2019, published 2022).

System: KIR2DS2
Assay: KIR2DS2 tetramer staining of peptide-loaded 721.174 cells (flow cytometry)
Type: binding
Settings: 721.174 cells loaded with peptide; KIR2DS2 tetramer conjugated to phycoerythrin; no peptide 10503
Excerpt: 721.174 cells were loaded with peptide and then stained using a tetramer of KIR2DS2 conjugated to phycoerythrin. Shown is a flow cytometry histogram plot of the staining of the 721.174 cells in the presence or absence of peptide. Mean fluorescence intensitites are indicated: 14811 for NAPLVHATL versus 10503 for no peptide.

Sequence of KIR2DS2 (P43631 22-245 limits assumed): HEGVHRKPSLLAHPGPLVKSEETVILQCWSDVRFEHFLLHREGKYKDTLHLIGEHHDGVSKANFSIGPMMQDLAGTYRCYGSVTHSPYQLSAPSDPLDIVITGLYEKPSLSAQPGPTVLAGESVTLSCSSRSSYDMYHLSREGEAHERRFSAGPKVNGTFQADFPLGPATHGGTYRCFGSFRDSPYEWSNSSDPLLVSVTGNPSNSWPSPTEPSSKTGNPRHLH
Sequence of KIR2DS2 (P10321 25-366, further chain): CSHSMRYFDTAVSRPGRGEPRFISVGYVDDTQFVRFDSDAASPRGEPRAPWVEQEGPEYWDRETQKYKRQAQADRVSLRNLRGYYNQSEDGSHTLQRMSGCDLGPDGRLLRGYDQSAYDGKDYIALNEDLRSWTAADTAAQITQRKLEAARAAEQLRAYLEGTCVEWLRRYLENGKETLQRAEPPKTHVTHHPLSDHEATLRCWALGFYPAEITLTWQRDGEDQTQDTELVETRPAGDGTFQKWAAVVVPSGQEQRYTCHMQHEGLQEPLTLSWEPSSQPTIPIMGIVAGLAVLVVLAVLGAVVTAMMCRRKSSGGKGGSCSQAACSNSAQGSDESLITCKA
Sequence of KIR2DS2 (P61769 21-119 partner): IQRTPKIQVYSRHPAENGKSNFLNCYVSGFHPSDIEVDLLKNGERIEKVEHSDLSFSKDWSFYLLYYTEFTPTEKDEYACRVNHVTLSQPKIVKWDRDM

Sequence: NAPLVHATL [peptide derived from Exportin-1 (XPO1)]
- Mean fluorescence intensity of KIR2DS2 tetramer staining: 14811
